Reference: patent US11318126B2, “Composition for activating neurogenesis” (KYOTO UNIVERSITY, priority 2016, dated 2022)

Experiments:
DYRK1A [1] = biological target: T1, DYRK1A (Homo sapiens, UniProt Q13627); test: in-vitro kinase assay against DYRK1A; format: biochemical; settings: for IC50: DYRK peptide as substrate, 10 μM ATP
Description: The inhibitory activity of Compounds 4 and 10 against DYRK1A was examined through in-vitro kinase assay (in-vitro kinase analysis).
The inhibitory activity of Compounds 4 and 10 against DYRK1A was examined in the presence of DYRK1A protein using a DYRK peptide as a substrate under the condition of 10 μM ATP.

DYRK1A [2] = biological target: T1, DYRK1A; test: Western blotting of tau protein phosphorylation (threonine 212) in cultured cells expressing tau protein and DYRK1A protein; format: cell-based; settings: 0.3 μM, 1 μM, 3 μM, or 10 μM; antibody to phosphorylated threonine 212 of tau
Description: Tau protein, which is a substrate of a target kinase, was overexpressed in cells in the presence of Compound 4 or 10 at a concentration of 0.3 μM, 1 μM, 3 μM, or 10 μM, and the inhibitory activity of Compounds 4 and 10 was examined using the phosphorylation of the tau protein as an index.
FIG. 2 is an example of the result of Western blotting analysis of cultured cells in which the expression of both tau protein and DYRK1A protein was induced in the presence of Compound 4 or 10 at a concentration of 0.3 μM, 1 μM, 3 μM, or 10 μM, using an antibody that specifically recognizes the phosphorylated threonine residue at 212-position of tau protein was used to analyze.

Mouse neural stem cells = test: BrdU uptake in cultured mouse neural stem cells (Arrayscan); format: cell-based; settings: for incorporation of BrdU into neural stem cells (ratio of BrdU-positive cells relative to control): 1.25 μM, 2.5 μM, or 5 μM
Description: Mouse neural stem cells were treated with Compound 4 or 10, and then neural stem cell proliferating activity was examined using, as an index, uptake of 5-bromo-2′-deoxyuridine (BrdU), which is a nucleoside analog to be used as a proliferation index.
Specifically, isolated neural stem cells were cultured in the presence of BrdU and Compound 4 or 10 at a concentration of 1.25 μM, 2.5 μM, or 5 μM, so that proliferating cells were labeled. After the cells were fixed, BrdU was detected by an anti-BrdU antibody, and the ratio of proliferating cells that had incorporated the BrdU was quantitatively analyzed using Arrayscan (Thermo Scientific). […] In FIG. 3, “Control” indicates the results from adding no compounds, and “Solvent” indicates dimethyl sulfoxide (DMSO).

cyclin D1 [3] = test: Western blotting of cyclin D1 expression in cultured mouse neural stem cells; format: cell-based; settings: relative to control
Description: Mouse neural stem cells were treated with Compound 4, 6, or 10, and the expression level of cyclin D1, which positively controls cell proliferation, was examined through Western blotting. FIGS. 4A and 4B show the results. In FIGS. 4A and 4B, “Control” indicates the results from adding no compounds, and “Solvent” indicates dimethyl sulfoxide (DMSO).

cyclin D1 [4] = test: Western blotting of cyclin D1 expression in HEK293 cells over time; format: cell-based; settings: treated over time
Description: HEK293 cells were treated with Compound 4 or 10 over time, and the expression level of cyclin D1 was examined through Western blotting.

[5] = test system: neural stem cells present in the dentate gyrus of the hippocampus; test: neurogenesis in the dentate gyrus of the hippocampus after 10-day administration; format: in vivo, rodent; settings: versus solvent administered group
Description: After 10-day long administration of Compound 4 to a rodent, BrdU was administered thereto, and the number of proliferating cells was quantitatively evaluated. […] In FIGS. 5B and 5C, “Solvent” indicates the results from adding no compound. FIG. 5A is a representative images of thin sections of the dentate gyrus of the hippocampus, and the image of Dapi staining (nucleus staining), the image of doublecortin (DCX) staining, and the image of BrdU staining are shown in the order from top to bottom. FIG. 5B is an example of a graph showing the number of BrdU-positive cells in the dentate gyrus of the hippocampus. FIG. 5C is an example of a graph showing the number of immature neurons in the dentate gyrus of the hippocampus as a relative value determined based on the result from the solvent sample taken as 1.

[6] = test system: neural stem cells isolated Down syndrome model mice (Ts1Cje); test: proliferation (BrdU-positive ratio) of neural stem cells from Down syndrome model mice; format: cell-based, mouse; settings: Ts1Cje versus wild-type
Description: Neural stem cells were prepared from wild-type mice and Down syndrome model mice (Ts1Cje: the same applies hereinafter), and the effect of Compound 4 on the proliferation of neural stem cells isolated Down syndrome model mice was examined. […] In FIG. 6, “Solvent” indicates the results from no adding compound.

[7] = test system: Down syndrome model mice (Ts1Cje); test: neurogenesis in the dentate gyrus of the hippocampus of Down syndrome model mice; format: in vivo, mouse; settings: 8-week old Down syndrome model mice
Description: First, a solvent or Compound 4 was administered to 8-week old wild-type mice and 8-week old Down syndrome model mice, and the effect on neurogenesis in the dentate gyrus of the hippocampus was examined.

[8] = test system: Down syndrome model mice (fetus); test: thickness of the cerebral cortex of Down syndrome model fetuses after oral administration to pregnant mice; format: in vivo, mouse; settings: tenth to fifteenth day of fetal life
Description: Moreover, Compound 4 was orally administered to pregnant mice carrying Down syndrome model mice from the tenth day to fifteenth day of fetal life, and the thickness of the cerebral cortex was measured at the fifteenth day of fetal life. […] In FIGS. 7A and 7B, “Solvent” indicates the results from adding no compound.

Down syndrome model mice = test: learning and memory tests (Y maze, Barnes maze, fear conditioning) after prenatal administration; format: in vivo, mouse; settings: 10 mg/kg oral once a day to pregnant mice from tenth day of fetal life until birth; tested at 8 weeks
Description: Compound 4 (10 mg/kg) or a solvent was orally administered to pregnant mice carrying Down syndrome model mice once a day from the tenth day of fetal life until birth. After birth, at the age of 8 weeks, three types of tests (A. Y maze test for spontaneous alteration behavior, B. Barnes maze test for spatial memory, and C. fear conditioning test) were performed successively. FIGS. 8A to 8C show the results. In FIGS. 8A to 8C, “Solvent” indicates the results from adding no compound.

[9] = test system: Facial nerve palsy model mice; test: facial nerve palsy model, paralysis scores; format: in vivo, ICR mouse; settings: 10 mg/kg every day from an hour before the operation
Description: A facial nerve trunk (3 mm) of a rodent (ICR mouse; 6 to 8 weeks old) was extracted and compressed using a Mosquito forceps with a width of 1 mm for 30 seconds. Facial nerve palsy model mice were thus produced. Compound 4 (10 mg/kg) was administered every day from an hour before the operation (day 0), and paralysis scores relating to nictitation (“no eye-opening” to “cured”), a nose (“extended” to “cured”), and whiskers (“no movement” to “cured”) were evaluated according to four levels. […] In FIG. 9A, “Solvent” indicates the results from adding no compound.

[10] = test system: zebrafish spinal cord injury; test: zebrafish spinal cord injury model, migration distance by behavior analysis; format: in vivo; settings: in breeding water, sixth to eighth day after fertilization
Description: On the fifth day after fertilization, the zebrafish spinal cord was injured using an ophthalmic scalpel, and the zebrafish was bred in breeding water containing Compound 4 until the eighth day after fertilization.

[11] = test system: fibroblasts derived from human skin; test: flow cytometry cell cycle analysis of fibroblasts derived from human skin; format: cell-based; settings: 48 hours treatment
Description: Next, fibroblasts derived from human skin were treated with a solvent or Compound 4 for 48 hours, and the cell cycle was analyzed through flow cytometry. […] It is considered that this is because Compound 4 stabilized cyclin D1 and thus stimulated the progression of the cell cycle from the G1 phase to the subsequent S phase and G2/M phase.

| SMILES | IC50 (DYRK1A [1]) | inhibitory effect against the phosphorylation of tau protein (DYRK1A [2]) | melting point | incorporation of BrdU into neural stem cells (ratio of BrdU-positive cells relative to control) (Mouse neural stem cells) | expression level of cyclin D1 (cyclin D1 [3]) | protein level of cyclin D1 (cyclin D1 [4]) | further results |
| --- | --- | --- | --- | --- | --- | --- | --- |
| c1cnc2ccc(-c3ccncc3)cc2c1 [Compound 10] | 59.7 nM | exhibited a high inhibitory effect |  | increased the amount of incorporation of BrdU | significantly high | increased (i.e. the cyclin D1 was stabilized) in a treatment time dependent manner |  |
| c1cncc(-c2ccc3[nH]ncc3c2)c1 [Compound 4] | 55.6 nM | exhibited a high inhibitory effect |  | increased the amount of incorporation of BrdU | significantly high | increased (i.e. the cyclin D1 was stabilized) in a treatment time dependent manner | number of immature neurons in the dentate gyrus of the hippocampus [5]: significantly larger; number of proliferating cells (BrdU-positive) in the dentate gyrus of the hippocampus [5]: significantly larger; ratio of BrdU-positive cells in neural stem cells from Down syndrome model mice [6]: compensated for the reduced proliferation; number of proliferating cells in dentate gyrus of the hippocampus [7]: compensated for the reduced neurogenesis; thickness of cortical layers [8]: compensated for the cerebral cortex with a reduced thickness; cognitive function (Y maze, Barnes maze, fear conditioning tests) (Down syndrome model mice): improved the cognition function; paralysis scores (nictitation, nose, whiskers) [9]: tended to promote recovery; migration distance after spinal cord injury [10]: migration distance was recovered; ratio of cell in the G2/M phase of the cell cycle [11]: increased; ratio of cells in the G1 phase of the cell cycle [11]: decreased |
| c1ccc2c(-c3ccc4[nH]ncc4c3)cncc2c1 [Compound 6] |  | showed the same tendency as Compounds 4 and 10 |  |  | significantly high |  | inhibitory activity against DYRK1A (DYRK1A [1]; same experiment as Compounds 4 and 10): lower than that of Compounds 4 and 10; proliferation of cultured neural stem cells (Mouse neural stem cells; 2.5 μM and 5 μM): promoted the proliferation of cultured neural stem cells |

Second part, led by results:

| IC50 (DYRK1A [1]) | inhibitory effect against the phosphorylation of tau protein (DYRK1A [2]) | melting point | SMILES | incorporation of BrdU into neural stem cells (ratio of BrdU-positive cells relative to control) (Mouse neural stem cells) | expression level of cyclin D1 (cyclin D1 [3]) | protein level of cyclin D1 (cyclin D1 [4]) | further results |
| --- | --- | --- | --- | --- | --- | --- | --- |
|  |  | 180 °C (dec.) | c1cncc(Nc2cccc3ncccc23)c1 [Compound 8, 5-(3-Pyridylamino)quinoline] |  |  |  |  |
|  |  | 255 °C (dec.) | c1cc(-c2ccc3[nH]ncc3c2)c2cccnc2c1 [Compound 1, 5-(5-Quinolyl)indazole] |  |  |  |  |
